Here are results for 22 compounds from patent publication US10729691B2, “Treatment of infectious diseases with glucose uptake inhibitors” (Kadmon Corporation LLC, priority 2015, dated 2020).

Bounds are passed on as bounds.

One experiment concerns P. falciparum-infected RBCs. Description: Glycolysis IC50 / lactate excretion assay in P. falciparum-infected RBCs. The experiment is classed as cell-based. Conditions: Plasmodium falciparum. As to the method: The cultures were harvested and DNA quantitated using the standard Sybr Green I fluorescence assay. […] The culture medium was harvested and extracellular lactic acid was quantified by LC-MS.
P. falciparum (HB-3 strain) cultures were maintained in standard culture conditions. […] Parasites were grown in O+ donor blood, 2% hematocrit.
Parasite cultures were seeded in 96-well plates (1% hematocrit, 1-2% starting parasitemia, 100 μL total volume) with varying concentrations of the test compounds in a final concentration of 0.1% DMSO. Plates were cultured for 48 hours before harvesting the culture medium for LC-MS analysis. At harvest, thin smears were taken and examined microscopically to observe any alterations in parasite morphology.
Culture medium samples were diluted in 9 volumes of methanol containing U-^13C-glucose and 1-^13C-lactate (final concentration 0.25 mM each). The samples were clarified by centrifugation at 13,000 RCF for 10 minutes. […] Mobile phase A was acetonitrile, and mobile phase B was 20 mM ammonium acetate (pH 9.4).
(§1) The sample was analyzed on an Exactive mass spectrometer (Thermo Scientific) to determine the chromatographic peak areas the analytes and internal standards. Glucose and lactate were quantified by taking the ratio of the unlabeled peak area to the area of the isotope-labeled standard.
What is called IC50 is the midpoint of a concentration-inhibition curve. Low values mean greater potency, high ones weaker potency. In the case of `CC(C)NC(=O)COc1cccc(-c2nc(Nc3ccc4[nH]ncc4c3)c3sccc3n2)c1` [Example 3], the IC50 lay within 101 to 250 nM.

In the case of `CC(C)NC(=O)COc1cccc(-c2nc3c(c(Nc4ccc(-c5cn[nH]c5)cc4)n2)CSC3)c1` [Example 34, 2-(3-(4-((4-(1H-pyrazol-4-yl)phenyl)amino)-5,7-dihydrothieno[3,4-d]pyrimidin-2-yl)phenoxy)-N-isopropylacetamide], the IC50 was in the range of 501 to 1000 nM.

In the case of `O=C(COc1cccc(-c2nc3c(c(Nc4ccc(-c5cn[nH]c5)cc4)n2)CSC3)c1)NC1CCC1` [Example 35, 2-(3-(4-((4-(1H-pyrazol-4-yl)phenyl)amino)-5,7-dihydrothieno[3,4-d]pyrimidin-2-yl)phenoxy)-N-cyclobutylacetamide], the IC50 was in the range of 501 to 1000 nM. For `O=C(COc1cccc(-c2nc3c(c(Nc4ccc(-c5cn[nH]c5)cc4)n2)CSC3)c1)NC1CCCC1` [Example 36, 2-(3-(4-((4-(1H-pyrazol-4-yl)phenyl)amino)-5,7-dihydrothieno[3,4-d]pyrimidin-2-yl)phenoxy)-N-cyclopentylacetamide], the IC50 was in the range of 501 to 1000 nM. Still for that read-out and setting: the same measure for `CC(C)NC(=O)COc1cccc(-c2nc3c(c(Nc4ccc(-c5cn[nH]c5)cc4)n2)COCC3)c1` [Example 40, 2-(3-(4-((4-(1H-pyrazol-4-yl)phenyl)amino)-7,8-dihydro-5H-pyrano[4,3-d]pyrimidin-2-yl)phenoxy)-N-isopropylacetamide]: 10 to 100 nM. The same measure, in the same setting: as for `CCC(C)NC(=O)COc1cccc(-c2nc3c(c(Nc4ccc(-c5cn[nH]c5)cc4)n2)COCC3)c1` (centres unmarked) [Example 41, 2-(3-(4-((4-(1H-pyrazol-4-yl)phenyl)amino)-7,8-dihydro-5H-pyrano[4,3-d]pyrimidin-2-yl)phenoxy)-N-(sec-butyl)acetamide], the figure is 10 to 100 nM. `CC(C)(C)NC(=O)COc1cccc(-c2nc(Nc3ccc(-c4cn[nH]c4)cc3)c3sccc3n2)c1` [Example 42, 2-(3-(4-((4-(1H-pyrazol-4-yl)phenyl)amino)thieno[3,2-d]pyrimidin-2-yl)phenoxy)-N-(tert-butyl)acetamide] yielded an IC50 of 101 to 250 nM.

As for `CCC(C)(C)NC(=O)COc1cccc(-c2nc(Nc3ccc(-c4cn[nH]c4)cc3)c3sccc3n2)c1` [Example 43, 2-(3-(4-((4-(1H-pyrazol-4-yl)phenyl)amino)thieno[3,2-d]pyrimidin-2-yl)phenoxy)-N-(tert-pentyl)acetamide], the IC50 was 10 to 100 nM. On the same count and under the same terms, the same measure for `CC(=O)N1CCc2nc(-c3cccc(OCC(=O)NC(C)C)c3)nc(Nc3ccc(-c4cn[nH]c4)cc3)c2C1` [Example 44, 2-(3-(4-((4-(1H-pyrazol-4-yl)phenyl)amino)-6-acetyl-5,6,7,8-tetrahydropyrido[4,3-d]pyrimidin-2-yl)phenoxy)-N-isopropylacetamide]: 10 to 100 nM; for `CCC(CC)NC(=O)COc1cccc(-c2nc3c(c(Nc4ccc(-c5cn[nH]c5)cc4)n2)CN(C(C)=O)CC3)c1` [Example 45, 2-(3-(4-((4-(1H-pyrazol-4-yl)phenyl)amino)-6-acetyl-5,6,7,8-tetrahydropyrido[4,3-d]pyrimidin-2-yl)phenoxy)-N-(pentan-3-yl)acetamide]: 10 to 100 nM; for `CC(C)CNC(=O)COc1cccc(-c2nc3c(c(Nc4ccc(-c5cn[nH]c5)cc4)n2)COCC3)c1` [Example 46, 2-(3-(4-((4-(1H-pyrazol-4-yl)phenyl)amino)-7,8-dihydro-5H-pyrano[4,3-d]pyrimidin-2-yl)phenoxy)-N-isobutylacetamide]: 10 to 100 nM. On the same count and under the same terms, as for `CC(C)(C)CNC(=O)COc1cccc(-c2nc3c(c(Nc4ccc(-c5cn[nH]c5)cc4)n2)COCC3)c1` [Example 47, 2-(3-(4-((4-(1H-pyrazol-4-yl)phenyl)amino)-7,8-dihydro-5H-pyrano[4,3-d]pyrimidin-2-yl)phenoxy)-N-neopentylacetamide], the figure is 10 to 100 nM; as for `CC(=O)N1CCc2nc(-c3cccc(OCC(=O)NC(C)(C)C)c3)nc(Nc3ccc(-c4cn[nH]c4)cc3)c2C1` [Example 48, 2-(3-(4-((4-(1H-pyrazol-4-yl)phenyl)amino)-6-acetyl-5,6,7,8-tetrahydropyrido[4,3-d]pyrimidin-2-yl)phenoxy)-N-(tert-butyl)acetamide], 10 to 100 nM. Same read-out and setting: the same measure for `O=C(COc1cccc(-c2nc3c(c(Nc4ccc(-c5cn[nH]c5)cc4)n2)COCC3)c1)NC1CCCC1` [Example 51, 2-(3-(4-((4-(1H-pyrazol-4-yl)phenyl)amino)-7,8-dihydro-5H-pyrano[4,3-d]pyrimidin-2-yl)phenoxy)-N-cyclopentylacetamide]: 101 to 250 nM; for `O=C(COc1cccc(-c2nc3c(c(Nc4ccc(-c5cn[nH]c5)cc4)n2)COCC3)c1)NC1CCC1` [Example 52, 2-(3-(4-((4-(1H-pyrazol-4-yl)phenyl)amino)-7,8-dihydro-5H-pyrano[4,3-d]pyrimidin-2-yl)phenoxy)-N-cyclobutylacetamide]: 101 to 250 nM; for `CC(C)NC(=O)COc1cccc(-c2nc(Nc3ccc(-c4cn[nH]c4)cc3)c3cnccc3n2)c1` [Example 53, 2-(3-(4-((4-(1H-pyrazol-4-yl)phenyl)amino)pyrido[4,3-d]pyrimidin-2-yl)phenoxy)-N-isopropylacetamide]: 101 to 250 nM. `CC(=O)N1Cc2nc(-c3cccc(OCC(=O)NC(C)C)c3)nc(Nc3ccc(-c4cn[nH]c4)cc3)c2C1` [Example 54, 2-(3-(4-((4-(1H-pyrazol-4-yl)phenyl)amino)-6-acetyl-6,7-dihydro-5H-pyrrolo[3,4-d]pyrimidin-2-yl)phenoxy)-N-isopropylacetamide] returned an IC50 of 501 to 1000 nM. Take `CCC(CC)NC(=O)COc1cccc(-c2nc3c(c(Nc4ccc(-c5cn[nH]c5)cc4)n2)CN(C(C)=O)C3)c1` [Example 55, 2-(3-(4-((4-(1H-pyrazol-4-yl)phenyl)amino)-6-acetyl-6,7-dihydro-5H-pyrrolo[3,4-d]pyrimidin-2-yl)phenoxy)-N-(pentan-3-yl)acetamide]: the IC50 lay within 10 to 100 nM. Still for that read-out and setting: the same measure for `CC(=O)N1Cc2nc(-c3cccc(OCC(=O)NC(C)(C)C)c3)nc(Nc3ccc(-c4cn[nH]c4)cc3)c2C1` [Example 56, 2-(3-(4-((4-(1H-pyrazol-4-yl)phenyl)amino)-6-acetyl-6,7-dihydro-5H-pyrrolo[3,4-d]pyrimidin-2-yl)phenoxy)-N-(tert-butyl)acetamide]: 101 to 250 nM; for `CC(=O)N1CCc2nc(-c3cccc(OCC(=O)NC4CCCC4)c3)nc(Nc3ccc(-c4cn[nH]c4)cc3)c2C1` [Example 57, 2-(3-(4-((4-(1H-pyrazol-4-yl)phenyl)amino)-6-acetyl-5,6,7,8-tetrahydropyrido[4,3-d]pyrimidin-2-yl)phenoxy)-N-cyclopentylacetamide]: 101 to 250 nM. Compound `CC(C)(C)NC(=O)COc1cccc(-c2nc(Nc3ccc(-c4cn[nH]c4)cc3)c3cnccc3n2)c1` [Example 58, 2-(3-(4-((4-(1H-pyrazol-4-yl)phenyl)amino)pyrido[4,3-d]pyrimidin-2-yl)phenoxy)-N-(tert-butyl)acetamide] returned an IC50 of 101 to 250 nM. On the same count and under the same terms, the same measure for `CC(=O)N1CCc2nc(-c3cccc(OCC(=O)NCC(C)C)c3)nc(Nc3ccc(-c4cn[nH]c4)cc3)c2C1` [Example 59, 2-(3-(4-((4-(1H-pyrazol-4-yl)phenyl)amino)-6-acetyl-5,6,7,8-tetrahydropyrido[4,3-d]pyrimidin-2-yl)phenoxy)-N-isobutylacetamide]: 101 to 250 nM.

The test system of a further experiment is P. falciparum (3D7 strain)-infected erythrocyte cultures. Description: LC-MS metabolomics analysis of ATP levels in infected erythrocyte cultures. In kind it is cell-based, Plasmodium falciparum. Conditions: 2.5 uM compound. Here is the method:
The ATP levels of the infected cells are substantially depleted within 15 minutes of compound exposure and remain so for the duration of the experiment.
Cellular metabolite levels were determined in cultures that had been enriched for late stage (trophozoite/schizont)-infected erythrocytes by centrifuging a bulk culture suspension over a two-step Percoll gradient (65%/35% Percoll) at 1,500 RCF for 15 minutes and collecting the parasitized erythrocytes at the interface. 10 uL of packed cells were pelleted from the resulting cultures by centrifugation (500 RCF, 5 minutes), the culture medium removed by aspiration, and the cells extracted with 1.2 mL of 80% methanol/20% on dry ice. The first extraction was collected as the supernatant after centrifugation (1,000 RCF, 5 minutes) and the pellet extracted again with 0.3 mL of 80% methanol/20%. The two extracts were pooled, dried under nitrogen and resuspended in 200 uL of water prior to LC-MS analysis. […]
as §1
Turning to `CC(C)NC(=O)COc1cccc(-c2nc(Nc3ccc4[nH]ncc4c3)c3sccc3n2)c1` [Example 3], the “time until ATP levels of the infected cells are substantially depleted” value is not above 15 min.
